Measurements reported in patent US6815195B2, “5-substituted hydantoin racemase, DNA coding for the racemase, and processes for producing optically active amino acids” (Ajinomoto Co. Inc., priority 2000, dated 2004).
“Also recorded” adds a separate entry of the source.

Tests used:
HRase [1] = test: Racemization of optically active 5-substituted hydantoin compounds other than BH (D-amino acid formation with AJ 11220 and HRase, TLC); assay type: biochemical, Microbacterium liquefaciens AJ3912; details: 1 g/dl substrate, 1.3 μg/ml purified HRase, 2 g/dl wet AJ 11220, 37° C., 22 hours, optical resolution TLC
Experimental: The ability of the present HRase to catalyze racemization of optically active 5-substituted hydantoin compounds other than BH was examined. The formation of D-amino acid from L-5-substituted hydantoin by a combination of Pseudomonas sp. AJ 11220 and HRase was confirmed in the same manner as in Example 8.
1 g/dl 5-substituted hydantoin of various kinds, together with 1.3 μg/ml purified HRase, 0.1 M KPB (pH 8.0), 0.5 mM CoCl2 and 2 g/dl wet AJ 11220, was subjected to stationary reaction at 37° C. for 22 hours. Each hydantoin consisted of D- and L-isomers as the substrate, and it was confirmed that D-amino acid was formed from the D-isomer substrate in the absence of HRase, and also that D-amino acid was not formed from the L-isomer substrate in the absence of HRase, and then it was judged that when D-amino acid was formed from the L-isomer substrate in the presence of HRase, the substrate was recognized. The formation of D-amino acid was qualitatively estimated by development with optical resolution TLC (MERCK, HPTLC CHIR) with methanol:H2O:acetonitrile=1:1:4.

HRase [2] = test: Racemization of BH by purified HRase (substrate recognition); assay type: biochemical, Microbacterium liquefaciens AJ3912; details: 0.3 mg/ml purified HRase, 37° C., pH 8.0
Experimental: (§1) A reaction solution containing 0.3 mg/ml purified HRase, 0.12 g/dl D- or L-BH, 50 mM KPB (pH 8.0) and 5 mM DTT was incubated at 37° C. and sampled with time to quantify the amount of BH by HPLC. As the control, the same experiment was performed in an experimental group not containing the enzyme, to quantify the spontaneous racemization of BH.

HRase [3] = test: Effect of various reagents such as enzyme inhibitors on HRase activity (residual activity); assay type: biochemical, Microbacterium liquefaciens AJ3912; details: for effect of reagent on HRase activity (in words): purified HRase pre-incubated with reagent; for Residual Activity (%): relative to activity without reagent (100%), pre-incubation 0° C. 30 min pH 8.0, reaction pH 8.0, 30° C., 30 min, concentration in reaction: NEM 5 mM, CuSO4 2.5 mM, IAA 10 mM, EDTA 10 mM, Methanol 10% (v/v)
Experimental: (§2) Specifically, a reaction solution containing 120 mg/dl L- or D-benzyl hydantoin (BH), 50 mM dibasic potassium phosphate buffer (KPB) (pH 8.0), 5 mM dithiothreitol (DTT) and an HRase enzyme solution was incubated at 37° C. for 30 minutes, and the reaction was stopped by adding a 9-fold excess volume of 1.1 mM CuSO4 and 11.1 mM H3PO4 solution. The precipitates were removed by centrifugation at 20,000 g×10 minutes, and the amount of racemized BH was quantitatively determined by HPLC to estimate the racemization activity. The enzyme activity causing racemization of 1 μmol BH per minute under these conditions was defined as 1 U of the enzyme activity.
1.5 μg/ml purified HRase was pre-incubated at 0° C. for 30 minutes at pH 8.0 with 25 mM DTT, 25 mM N-ethylmaleimide (NEM), 12.5 mM CuSO4, 50 mM monoiodoacetic acid (IAA), 50 mM EDTA or 50% (v/v) methanol. As the enzyme source, each of these mixtures was reacted at pH 8.0, at 30° C. for 30 minutes to measure the residual activity, and the susceptibility of the HRase to each inhibitor was determined. The concentration of each of the enzyme and the inhibitor during the reaction was about ⅕ relative to the concentration during the pre-incubation.
The residual activity was shown as relative activity to the activity (100%) in the absence of the reagent (see Table 2).

[4] = HRase activity measurement: racemization of BH quantified by HPLC (specific activity of purified HRase); assay type: biochemical, Microbacterium liquefaciens AJ3912
Experimental: Measurement of the HRase activity of the HRase of the present invention can be carried out by measuring a change in the optical rotation as the degree of racemization of the optically active D- or L-5-substituted hydantoin compound as the substrate or by high performance liquid chromatography (HPLC) using an optical resolution column.
as §2
The quantitative analysis of optically active BH by analysis in HPLC was conducted by use of Daicel Chemical CHIRALPAK WH 0.46 cmφ×25 cm. The analysis conditions are as follows:
as §1

[5] = Production of D-Phe from DL-BH or L-BH by a combination of Agrobacterium sp. AJ11220 and HRase; assay type: biochemical; details: reaction 30 hours
Experimental: 0.5 g/dl (26 mM) DL-BH or L-BH, together with 0.84 μg/ml purified HRase, 0.1 M KPB (pH 8.0), 0.5 mM CoCl2 and 2 g/dl wet AJ11220 microorganism, was subjected to stationary reaction at 30° C. Oxygen was previously removed from the reaction solution by replacing it by nitrogen. The reaction solution was sampled with time and analyzed by HPLC to quantify the formed D-Phe.

[6] = calculated from initial reaction rate, 37° C., pH 8.0, 5 mM DTT

Molecule: O=C1NC(=O)[C@H](Cc2c[nH]c3ccccc23)N1 [L-5-indolyl methyl hydantoin]
- racemization by HRase (D-amino acid formed from L-isomer substrate, qualitative) (HRase [1]): racemized

Molecule: O=C1NC(=O)[C@@H](Cc2ccccc2)N1 [D-BH, D-benzyl hydantoin]
- recognition as substrate by HRase (HRase [2]): recognized

Molecule: CO [Methanol, methanol]
- effect of reagent on HRase activity (in words) (HRase [3]): did not influence
- Residual Activity (%) (HRase [3]): 99%

Molecule: CCN1C(=O)C=CC1=O [NEM, N-ethylmaleimide]
- effect of reagent on HRase activity (in words) (HRase [3]): significantly inhibited; also recorded: strongly inhibited
- Residual Activity (%) (HRase [3]): 0%

Molecule: O=C(O)CN(CCN(CC(=O)O)CC(=O)O)CC(=O)O [EDTA, ethylenediaminetetraacetic acid]
- effect of reagent on HRase activity (in words) (HRase [3]): no significant inhibitory effect; also recorded: minimally inhibited
- Residual Activity (%) (HRase [3]): 86%

Molecule: O=C1NC(=O)[C@H](Cc2ccccc2)N1 [L-BH, L-benzyl hydantoin]
- recognition as substrate by HRase (HRase [2]): recognized

Molecule: O=C(O)CI [IAA, monoiodoacetic acid]
- effect of reagent on HRase activity (in words) (HRase [3]): strongly inhibited
- effect of reagent on HRase activity (in words) (HRase [3]; listed as iodoacetic acid): significantly inhibited
- Residual Activity (%) (HRase [3]): 0%

Molecule: O=S(=O)([O-])[O-].[Cu+2] [CuSO4]
- effect of reagent on HRase activity (in words) (HRase [3]; listed as Cu^2+): significantly inhibited
- effect of reagent on HRase activity (in words) (HRase [3]; listed as copper ion): strongly inhibited
- Residual Activity (%) (HRase [3]): 0%

Molecule: CC(C)C[C@@H]1NC(=O)NC1=O [L-5-isobutyl hydantoin]
- racemization by HRase (D-amino acid formed from L-isomer substrate, qualitative) (HRase [1]): racemized

Molecule: O[C@H](CS)[C@H](O)CS (racemic) [DTT, dithiothreitol]
- effect of reagent on HRase activity (in words) (HRase [3]): activated

Molecule: O=C1NC(=O)[C@H](Cc2ccc(O)cc2)N1 [L-5-(p-hydroxybenzyl) hydantoin]
- racemization by HRase (D-amino acid formed from L-isomer substrate, qualitative) (HRase [1]): racemized

B1: HRase: 5-substituted hydantoin racemase from Microbacterium liquefaciens AJ3912, amino acid sequence SEQ ID NO:2 (protein)
chain: MRIHVINPNSSVDLTDAVAEAARSVVSPGTTITAVNPSKGPTVIEGSYDEVLATYHLVEEVRRAEREDRPDAYVIACFGDPGLDAVRELTDRPVVGIAEAAIQMTSFVAASFSIVSILPRVRKHLHELVHRAGATDRLASLKLPDLGVLAFHEDEAAAFETLRRVAGEAVREDGAESIVLGCAGMAGFARQLSEELGVPVIDAVEAACRVAESLVALGYRTSKANTYQAPTEKQYL
- specific activity of the purified HRase ([4]; after purification (Example 1), 1 U = racemization of 1 μmol BH per minute): 79 U/mg
- specific activity of the purified HRase, formation of D-BH from L-BH [4, 6]: 100 U/mg
- specific activity of the purified HRase, formation of L-BH from D-BH [4, 6]: 79 U/mg
- amount of D-Phe formed from DL-BH ([5]; HRase added (0.84 μg/ml), 26 mM DL-BH, 2 g/dl wet AJ11220, 30° C.): 24.6 mM
- amount of D-Phe formed from L-BH ([5]; HRase added (0.84 μg/ml), 26 mM L-BH, 2 g/dl wet AJ11220, 30° C.): 24.6 mM
- molar yield of D-Phe from DL-BH ([5]; HRase added, 26 mM DL-BH): 94%
- molar yield of D-Phe from L-BH ([5]; HRase added, 26 mM L-BH): 94%
